Publication PMC4122495, “Small Molecule Deubiquitinase Inhibitors Promote Macrophage Anti-Infective Capacity” (PLoS ONE, 2014)

Key:
[1] = system: L. monocytogenes; assay: L. monocytogenes intracellular growth assay in RAW264.7 macrophages; type: cell-based, Listeria monocytogenes 10403S; design: decrease in Listeria intracellular viability: concentration or dose not given beside the values
Protocol: RAW264.7 cells were cultured at an initial density of 4×10^6 cells per 24-well plate and allowed to adhere overnight. Macrophages were treated with 2.5 or 5 µM of DUB inhibitors dissolved in dimethyl sulfoxide (DMSO) for 0.5 or 1 h or with equivalent volume of DMSO (vehicle control) at 37°C. For dose-response curves, macrophages were incubated with 5, 2.5, 1 and 0.5 µM of compounds 1, 3 and 4 or 2.5, 2, 1 and 0.5 µM of compounds 2 and 9 for 0.5 h or 1 h at 37°C. DUB inhibitors were removed from cell culture prior to infection by changing the medium. Macrophages were infected with L. monocytogenes at a multiplicity of infection (MOI) of 1 for 0.5 h at 37°C. The inoculum was removed by washing infected cells three times with Dulbecco’s phosphate-buffered saline (PBS), and the cells were incubated in medium containing 10 µg/ml of gentamicin to kill extracellular bacteria for the duration of the experiment. At 8 h post-infection, cells were lysed in 1 ml 0.1% Triton X-100, serially diluted and plated on Luria-Bertani (LB) agar to enumerate the number of colony forming units (CFU). CFU were counted using the Acolyte SuperCount (Microbiology International, Frederick, MD) plate reader and software. Results were normalized to DMSO-treated cells.
Supplementary file pone.0104096.s001.tif: Figure S1 Dose-response curves for selected compounds. RAW264.7 cells were incubated with DMSO (equivalent volume) or the varying concentrations of WP1130-derivatives for 0.5 h (compounds 1, 2, 4 and 9) or 1 h (compound 3). After incubation, the medium was removed, and cells were infected at 37°C for 0.5 h at an MOI of 1 with L. monocytogenes in the absence of additional drugs. Following the 0.5 h infection, cells were washed and gentamycin (10 µg/ml) was added to kill extracellular bacteria. Intracellular bacteria were enumerated at 8 h post-infection. The data represent percent of Listeria intracellular growth compared to DMSO-treated cells from three independent experiments performed in triplicate. Non-linear regression curves were performed using the GraphPad Prism software. (TIF) Click here for additional data file.

[2] = system: USP9x; design: method as in Donato, N. J., manuscript in preparation; conditions: cell-based assay; ref Donato, N. J., manuscript in preparation; read-out: IC50 against USP9x; cited from earlier work

In the case of `CCCC(NC(=O)/C(C#N)=C/c1nc(Cl)ccc1Cl)c1ccc(OCCN2CCOCC2)cc1` (stereo not shown) [Compound 9], the EC50 ([1]; Listeria monocytogenes, RAW264.7 pre-treated with varying concentrations, then infected (MOI 1), intracellular CFU at 8 h post-infection, non-linear regression) is reported as 1920 nM, the “decrease in Listeria intracellular viability” value ([1]; RAW264.7 pre-treated at each compound's working condition (Fig. 2B, 5B), 8 h post-infection, vs DMSO) is reported as 66.1% and the “Decrease intracellular listeria viability (%)” value ([1]; conditions of Figure 2B and Figure 5B, maximal effective drug concentration used, 8 h post-infection, vs DMSO) is reported as 66.1%. For the same compound, the IC50 [2] was 1800 nM.
